Measured values as given in article PMC4585737, “Lipoproteins/peptides are sepsis-inducing toxins from bacteria that can be neutralized by synthetic anti-endotoxin peptides” (Scientific Reports, 2015).
Entries after “also recorded” stand apart in the source; their conditions may differ.

Legend:
human mononuclear cells = assay: TNFα production in human mononuclear cells (MNC) stimulated by LP, LTA or PGN, and its inhibition by SALP; assay type: cell-based
Description: The stimulation of MNC was performed as described previously. Briefly, MNC were isolated from heparinized blood of healthy donors by the Hypaque-Ficoll density gradient method. The cell number was equilibrated at 5 × 10^6 cells/ml RPMI 1640 containing 2 mM L-glutamine, 100 U/ml penicillin and 100 μg/ml streptomycin. For stimulation, 200 μl/well MNC were transferred into 96-well culture plates. The stimuli were serially diluted in RPMI 1640 and added to the cultures at 20 μl per well. The cultures were incubated for 4 h at 37 °C under 5% CO2. Cell-free supernatants were collected after centrifugation of the culture plates for 10 min at 400 × g and stored at −20 °C until the determination of the cytokine content. Immunological determination of TNFα in the cell supernatant was performed in a sandwich-ELISA as described earlier (OptEIA; BD, Heidelberg, Germany). TNFα was determined and measured following manufacturer’s instructions and results are the average of two assays.
LP preparations were pre-warmed for 30 min at 37 °C, and added to the cultures at 20 μl per well. In inhibition experiments, different SALP were added directly after LPS/LP/LTA administration.
Since the data of the stimulation of human MNC by the bacterial and synthetic LP was taken over a time period of more than 6 years, the TNFα production lead to considerable variations due to different batches of LP and of Pep19-2.5, and in particular due to variations resulting from blood samples of different donors. Because the main emphasis laid here is the efficiency of the peptide to inhibit the cytokine production, most figures describe the inhibition efficieny of the peptide in %, by presenting the means ± SEM of at least 3 independent experiments. The absolute values of the cytokine production, where of note, is given separately in the text.

FSL-1 aggregates = assay: FRET intercalation of peptide into FSL-1 aggregates; assay type: binding
Text: The ability of selected peptides to intercalate into LP aggregates was investigated exemplarily for FSL-1 and for LP SitC by FRET as described earlier. Briefly, the LP samples were doubly labelled with the fluorescent phospholipid dyes N-(7-nitrobenz-2-oxa-1,3-diazol-4-yl)-phosphatidyl ethanolamine (NBD-PE) and N-(lissamine rhodamine B sulfonyl)-phosphatidylethanolamine (Rh-PE) (Molecular Probes, Life Technologies). Intercalation of unlabeled molecules into the doubly labeled liposomes leads to probe dilution and to a lower FRET efficiency: Therefore, the emission intensity of the donor ID increases and that of the acceptor IA decreases (for the sake of clarity, only the quotient of the donor and acceptor emission intensity will be shown here).
In all the experiments, the peptides (100 μl of a 100 μM Hepes solution) were added to doubly labelled LP (900 μl of a 10 μM solution) at 50 s after equilibration. NBD-PE was excited at 470 nm and the donor and acceptor fluorescence intensities were monitored at 531 and 593 nm, respectively, and the fluorescence signal ID/IA was recorded for further 250 s. The measurement was repeated twice.

Sequence: GCKKYRRFRWKFKGKFWFWG [Aspidasept®, synthetic anti-LPS peptide (SALP), 20′mer, anti-septic therapeutic drug candidate]
- inhibition of TNFα induction by LP, LTA and PGN (human mononuclear cells; 10:1 excess weight ratio of the peptide): takes place in most cases
- cytokine expression induced by LP, LTA and PGN in presence of peptide (human mononuclear cells; 100:1 weight ratio of the peptide): no longer any detectable cytokine expression
- reduction of FSL-1-induced TNFα secretion (human mononuclear cells; stimulus FSL-1 100 and 10 ng/ml, 10-fold (10:1 weight%) excess of peptide): considerable reduction; also recorded: good degree of inhibition
- reduction of FSL-1-induced TNFα secretion (human mononuclear cells; stimulus FSL-1, 100:1 excess of peptide): nearly completely abolished
- inhibition of LP dependent TNFα production (human mononuclear cells; stimulus LP OspA and OspC, 10000 and 1000 ng/ml, peptide:LP ratio 10:1): inhibited
- LP dependent TNFα production in presence of peptide (human mononuclear cells; stimulus LP OspA and OspC, peptide:LP 100:1 concentration ratio, data not shown): undetectable levels
- reduction of LTA-dependent TNFα response (human mononuclear cells; stimulus LTA from S. aureus SA113Δlgt, 10000 and 1000 ng/ml, 10-fold excess of peptide): effectively reduced
- inhibition of pro-inflammatory activity of MALP-2 (human mononuclear cells; stimulus MALP-2, 100:1 weight% excess of the peptide, data not shown): nearly complete inhibition
- inhibition of PGN-induced TNFα response (human mononuclear cells; stimulus PGN from S. aureus SA113Δlgt, 10000 and 1000 ng/ml, 10-fold excess of peptide): totally inhibited
- inhibition of Pam3CSK4-induced cytokine (TNFα) production (human mononuclear cells; stimulus Pam3CSK4 1000, 100, 10 ng/ml, [LP]:[Pep] up to 1:100 weight%): only a minor inhibitory effect; also recorded: no significant influence; also recorded: no or only a small inhibition
- inhibition of LTA-induced TNFα (human mononuclear cells; stimulus commercial LTA from B. subtilis, 10:1 weight% excess of peptide): complete inhibition
- inhibition of LTA-induced cytokine (human mononuclear cells; stimulus commercial LTA from S. aureus, data not shown): inhibited
- FRET: intercalation on increase in peptide concentration (FSL-1 aggregates; FSL-1:Pep19-2.5 1:1 M/M vs 1:0.1 M/M): did not lead to a further increase in intercalation
- FRET: incorporation into the LP aggregate (FSL-1 aggregates; [LP]:[Aspidasept] 1:0.1 molar, peptide added after 50 s, ID/IA signal): instantaneous incorporation
